Earlier results in patent US8791093B2, “Pharmaceutical delivery systems for treatment of substance abuse and other addictions” (priority 2009, dated 2014).

Tests used:
ALDH-II = biological target: T1, ALDH-II (Homo sapiens, UniProt P00352)
T1 sequence (P00352 1-501): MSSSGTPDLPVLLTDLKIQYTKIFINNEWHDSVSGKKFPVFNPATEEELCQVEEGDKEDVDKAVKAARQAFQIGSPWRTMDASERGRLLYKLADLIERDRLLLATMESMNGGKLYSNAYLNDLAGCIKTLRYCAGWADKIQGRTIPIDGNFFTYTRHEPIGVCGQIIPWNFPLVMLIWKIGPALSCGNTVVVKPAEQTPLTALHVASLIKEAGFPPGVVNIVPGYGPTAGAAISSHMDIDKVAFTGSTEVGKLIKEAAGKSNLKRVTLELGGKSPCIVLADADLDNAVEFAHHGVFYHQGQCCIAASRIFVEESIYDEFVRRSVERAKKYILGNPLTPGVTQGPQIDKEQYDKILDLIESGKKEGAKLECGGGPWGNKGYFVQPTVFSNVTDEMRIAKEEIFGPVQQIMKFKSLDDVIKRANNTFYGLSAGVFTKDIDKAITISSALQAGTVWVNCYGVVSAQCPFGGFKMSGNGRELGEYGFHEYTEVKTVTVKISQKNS

ALDH-I = biological target: T2, ALDH-I (Homo sapiens, UniProt P05091)
T2 sequence (P05091 18-517): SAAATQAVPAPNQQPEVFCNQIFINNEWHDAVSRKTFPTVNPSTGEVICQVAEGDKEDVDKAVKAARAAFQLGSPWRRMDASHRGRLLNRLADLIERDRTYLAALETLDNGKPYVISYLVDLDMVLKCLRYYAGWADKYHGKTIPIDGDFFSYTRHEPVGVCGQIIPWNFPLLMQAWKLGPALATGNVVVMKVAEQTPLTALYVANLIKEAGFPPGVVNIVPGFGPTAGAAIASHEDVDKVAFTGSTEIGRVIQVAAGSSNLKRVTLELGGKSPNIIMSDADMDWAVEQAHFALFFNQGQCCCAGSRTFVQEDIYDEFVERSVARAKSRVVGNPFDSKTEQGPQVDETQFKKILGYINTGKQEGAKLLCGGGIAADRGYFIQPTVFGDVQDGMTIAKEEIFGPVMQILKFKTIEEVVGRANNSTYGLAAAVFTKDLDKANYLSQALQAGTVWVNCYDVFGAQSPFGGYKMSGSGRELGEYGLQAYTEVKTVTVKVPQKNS

- inhibition of ALDH-II (ALDH-II): potent irreversible inhibitor
- inhibition of ALDH-I (ALDH-I): only slightly
Structure (SMILES): CCN(CC)C(=S)SSC(=S)N(CC)CC [Disulfiram, diethylcarbamothioylsulfanyl diethylaminomethanedithioate]
